{"source": "patent US20100311035A1", "about": "“Preservation solution for organs and biological tissues” (priority 2005, published 2010)", "key": {"[1]": {"system": "Sprague-Dawley rat kidneys", "test": "Cold storage of rat kidneys for 24 hours, transplantation, post-transplant serum creatinine", "assay_type": "in vivo", "conditions": "component(s) added to Viaspan; kidneys preserved under static conditions for 24 hours at 4° C, then transplanted; serum creatinine measured hourly for 6 hours; control VIASP solution; FIG. 1", "protocol": "Sprague-Dawley rat kidneys were recovered in the normal fashion and were exsanguinated and cooled to 4° C. Experimental components were added to the solution to test for improvements in post-transplant function (indicated by serum creatinine levels). Seven different solutions were prepared for comparison according to Table 1. […] The kidneys were preserved under static conditions for 24 hours with the respective solutions, and transplanted into recipient animals. Post-transplant serum creatinine (S. CREAT) was measured hourly for 6 hours."}, "Rat kidneys": {"system": "Rat kidneys", "test": "Machine perfusion of rat kidneys for 24 hours, transplantation, post-transplant serum creatinine", "assay_type": "in vivo", "conditions": "component(s) added to Belzer solution; kidneys preserved under machine perfusion for 24 hours, then transplanted; serum creatinine measured hourly for 6 hours; control BELZ solution; FIG. 2", "protocol": "Rat kidneys were recovered as above. Seven different solutions were prepared for comparison according to Table 2. […] The kidneys were preserved under machine perfusion for 24 hours with the respective solutions, and transplanted into recipient animals. Post-transplant serum creatinine (S. CREAT) was measured hourly for 6 hours."}}}
{"smiles": "N=C(N)NCCC[C@H](N)C(=O)O", "note": "[L-arginine]", "values": [{"measurement": "improvement in post-transplant function (indicated by serum creatinine levels) compared to the control", "setting": "[1]", "value": "Minimal, but statistically insignificant improvements"}, {"measurement": "improvement in post-transplant function (serum creatinine) compared to the control", "setting": "Rat kidneys", "value": "Minimal, but statistically insignificant improvements"}]}
{"smiles": "CC(=O)N[C@@H](CS)C(=O)O", "note": "[N-acetylcystein]", "values": [{"measurement": "improvement in post-transplant function (indicated by serum creatinine levels) compared to the control", "setting": "[1]", "value": "Minimal, but statistically insignificant improvements"}, {"measurement": "improvement in post-transplant function (serum creatinine) compared to the control", "setting": "Rat kidneys", "value": "Minimal, but statistically insignificant improvements"}]}
{"smiles": "O=[N+]([O-])OCC(CO[N+](=O)[O-])O[N+](=O)[O-]", "note": "[nitroglycerin]", "values": [{"measurement": "improvement in post-transplant function (indicated by serum creatinine levels) compared to the control", "setting": "[1]", "value": "Minimal, but statistically insignificant improvements"}, {"measurement": "improvement in post-transplant function (serum creatinine) compared to the control", "setting": "Rat kidneys", "value": "Minimal, but statistically insignificant improvements"}]}
{"smiles": "CCCCC[C@H](O)/C=C/[C@H]1[C@H](O)CC(=O)[C@@H]1CCCCCCC(=O)O", "note": "[prostaglandin E1]", "values": [{"measurement": "improvement in post-transplant function (indicated by serum creatinine levels) compared to the control", "setting": "[1]", "value": "Minimal, but statistically insignificant improvements"}, {"measurement": "improvement in post-transplant function (serum creatinine) compared to the control", "setting": "Rat kidneys", "value": "Minimal, but statistically insignificant improvements"}]}
